Laboratory results: ChEMBL document CHEMBL4507300 (2021)

Legend:
[1] = target: Mitogen-activated protein kinase kinase kinase 9 (Homo sapiens) (UniProt P80192); conditions: Compound concentration 1000.0 nM
[2] = target: Serine/threonine-protein kinase TAO2 (Homo sapiens) (UniProt Q9UL54); conditions: Compound concentration 1000.0 nM
[3] = target: Muscarinic acetylcholine receptor M5 (Homo sapiens) (UniProt P08912); conditions: Compound concentration 10.0 uM
[4] = target: Insulin-like growth factor 1 receptor (Homo sapiens) (UniProt P08069); conditions: Compound concentration 1000.0 nM
[5] = target: Serine/threonine-protein kinase ULK1 (Homo sapiens) (UniProt O75385); conditions: Compound concentration 1000.0 nM
[6] = tested on: Proto-oncogene tyrosine-protein kinase receptor Ret (Homo sapiens), P07949 [M918T]; conditions: Compound concentration 1000.0 nM
[7] = target: Casein kinase I isoform alpha-like (Homo sapiens) (UniProt Q8N752); conditions: Compound concentration 1000.0 nM
[8] = target: Proto-oncogene tyrosine-protein kinase receptor Ret (Homo sapiens) (UniProt P07949); conditions: Compound concentration 1000.0 nM
[9] = target: TGF-beta receptor type-1 (Homo sapiens) (UniProt P36897); conditions: Compound concentration 1000.0 nM
[10] = target: Tyrosine-protein kinase Fyn (Homo sapiens) (UniProt P06241); conditions: Compound concentration 1000.0 nM
[11] = target: MAP kinase-interacting serine/threonine-protein kinase 2 (Homo sapiens) (UniProt Q9HBH9); conditions: Compound concentration 1000.0 nM
[12] = target: 5-hydroxytryptamine receptor 2C (Homo sapiens) (UniProt P28335); conditions: Compound concentration 10.0 uM
[13] = tested on: Epidermal growth factor receptor (Homo sapiens), P00533 [UNDEFINED MUTATION]; conditions: Compound concentration 1000.0 nM
[14] = target: Cyclin-dependent kinase 17 (Homo sapiens) (UniProt Q00537); conditions: Compound concentration 1000.0 nM
[15] = target: Serine/threonine-protein kinase D2 (Homo sapiens) (UniProt Q9BZL6); conditions: Compound concentration 1000.0 nM
[16] = target: Platelet-derived growth factor receptor alpha (Homo sapiens) (UniProt P16234); conditions: Compound concentration 1000.0 nM
[17] = target: Casein kinase I isoform epsilon (Homo sapiens) (UniProt P49674); conditions: Compound concentration 1000.0 nM
[18] = target: Dual serine/threonine and tyrosine protein kinase (Homo sapiens) (UniProt Q6XUX3); conditions: Compound concentration 1000.0 nM
[19] = target: Cyclin-dependent kinase 4 (Homo sapiens) (UniProt P11802); conditions: Compound concentration 1000.0 nM
[20] = target: Serine/threonine-protein kinase MRCK gamma (Homo sapiens) (UniProt Q6DT37); conditions: Compound concentration 1000.0 nM
[21] = target: Serine/threonine-protein kinase PLK4 (Homo sapiens) (UniProt O00444); conditions: Compound concentration 1000.0 nM
[22] = target: Calcium/calmodulin-dependent protein kinase type II subunit delta (Homo sapiens) (UniProt Q13557); conditions: Compound concentration 1000.0 nM
[23] = tested on: Tyrosine-protein kinase ABL1 (Homo sapiens), P00519 [T315I]; conditions: Compound concentration 1000.0 nM
[24] = target: Cyclin-dependent kinase-like 5 (Homo sapiens) (UniProt O76039); conditions: Compound concentration 1000.0 nM
[25] = target: Cyclin-dependent kinase 19 (Homo sapiens) (UniProt Q9BWU1); conditions: Compound concentration 1000.0 nM
[26] = target: Aurora kinase B (Homo sapiens) (UniProt Q96GD4); conditions: Compound concentration 1000.0 nM
[27] = target: Mitogen-activated protein kinase 7 (Homo sapiens) (UniProt Q13164); conditions: Compound concentration 1000.0 nM
[28] = target: Serine/threonine-protein kinase Nek1 (Homo sapiens) (UniProt Q96PY6); conditions: Compound concentration 1000.0 nM
[29] = target: Casein kinase I isoform gamma-1 (Homo sapiens) (UniProt Q9HCP0); conditions: Compound concentration 1000.0 nM
[30] = tested on: Epidermal growth factor receptor (Homo sapiens), P00533 [G719C]; conditions: Compound concentration 1000.0 nM
[31] = target: Uncharacterized serine/threonine-protein kinase SBK3 (Homo sapiens) (UniProt P0C264); conditions: Compound concentration 1000.0 nM
[32] = target: Rhodopsin kinase GRK7 (Homo sapiens) (UniProt Q8WTQ7); conditions: Compound concentration 1000.0 nM
[33] = target: Serine/threonine-protein kinase 17A (Homo sapiens) (UniProt Q9UEE5); conditions: Compound concentration 1000.0 nM
Histamine H1 receptor = Histamine H1 receptor (Homo sapiens, UniProt P35367); conditions: Compound concentration 10.0 uM
[34] = target: SRSF protein kinase 1 (Homo sapiens) (UniProt Q96SB4); conditions: Compound concentration 1000.0 nM
[35] = target: Beta-1 adrenergic receptor (Homo sapiens) (UniProt P08588); conditions: Compound concentration 10.0 uM
[36] = target: Membrane-associated tyrosine- and threonine-specific cdc2-inhibitory kinase (Homo sapiens) (UniProt Q99640); conditions: Compound concentration 1000.0 nM
[37] = target: Cyclin-dependent kinase 11B (Homo sapiens) (UniProt P21127); conditions: Compound concentration 1000.0 nM
[38] = target: Cyclin-dependent kinase-like 3 (Homo sapiens) (UniProt Q8IVW4); conditions: Compound concentration 1000.0 nM
[39] = target: Activin receptor type-2A (Homo sapiens) (UniProt P27037); conditions: Compound concentration 1000.0 nM
[40] = tested on: Phosphatidylinositol 4,5-bisphosphate 3-kinase catalytic subunit alpha isoform (Homo sapiens), P42336 [E545A]; conditions: Compound concentration 1000.0 nM
[41] = target: Homeodomain-interacting protein kinase 1 (Homo sapiens) (UniProt Q86Z02); conditions: Compound concentration 1000.0 nM
[42] = target: Ribosomal protein S6 kinase alpha-4 (Homo sapiens) (UniProt O75676); conditions: Compound concentration 1000.0 nM
[43] = target: Serine/threonine-protein kinase OSR1 (Homo sapiens) (UniProt O95747); conditions: Compound concentration 1000.0 nM
[44] = target: Serine/threonine-protein kinase Nek9 (Homo sapiens) (UniProt Q8TD19); conditions: Compound concentration 1000.0 nM

Sequence of SRSF protein kinase 1 (Homo sapiens) (Q96SB4 whole entry): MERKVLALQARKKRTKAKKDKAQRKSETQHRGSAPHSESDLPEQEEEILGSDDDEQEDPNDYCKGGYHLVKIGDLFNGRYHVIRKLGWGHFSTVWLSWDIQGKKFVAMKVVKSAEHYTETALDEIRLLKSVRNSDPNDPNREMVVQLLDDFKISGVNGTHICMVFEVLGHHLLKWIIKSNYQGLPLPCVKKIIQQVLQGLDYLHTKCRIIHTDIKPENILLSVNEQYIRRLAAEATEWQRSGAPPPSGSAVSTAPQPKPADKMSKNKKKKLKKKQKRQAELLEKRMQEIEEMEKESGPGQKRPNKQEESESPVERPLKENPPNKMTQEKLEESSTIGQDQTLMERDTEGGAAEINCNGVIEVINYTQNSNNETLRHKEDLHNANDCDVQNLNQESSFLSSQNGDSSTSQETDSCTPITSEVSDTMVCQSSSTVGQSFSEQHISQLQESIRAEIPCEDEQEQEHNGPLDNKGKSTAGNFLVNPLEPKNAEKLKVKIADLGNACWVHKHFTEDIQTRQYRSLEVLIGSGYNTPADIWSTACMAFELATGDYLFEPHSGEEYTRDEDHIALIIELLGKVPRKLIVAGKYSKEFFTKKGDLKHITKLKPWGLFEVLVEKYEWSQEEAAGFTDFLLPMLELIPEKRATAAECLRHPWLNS
Sequence of Calcium/calmodulin-dependent protein kinase type II subunit delta (Homo sapiens) (Q13557 whole entry): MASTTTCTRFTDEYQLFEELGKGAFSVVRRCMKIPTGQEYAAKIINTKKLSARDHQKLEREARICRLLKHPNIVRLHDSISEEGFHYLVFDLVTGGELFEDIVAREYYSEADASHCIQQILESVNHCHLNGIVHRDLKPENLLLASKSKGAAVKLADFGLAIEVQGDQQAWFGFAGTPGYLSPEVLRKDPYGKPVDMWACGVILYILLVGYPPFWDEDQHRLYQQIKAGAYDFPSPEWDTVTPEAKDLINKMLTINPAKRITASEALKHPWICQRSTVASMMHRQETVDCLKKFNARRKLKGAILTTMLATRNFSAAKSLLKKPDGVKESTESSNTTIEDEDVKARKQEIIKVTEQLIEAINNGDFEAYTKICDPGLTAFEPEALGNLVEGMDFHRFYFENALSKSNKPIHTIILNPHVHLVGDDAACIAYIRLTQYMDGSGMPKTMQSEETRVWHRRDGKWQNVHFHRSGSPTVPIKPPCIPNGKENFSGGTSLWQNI
Sequence of Rhodopsin kinase GRK7 (Homo sapiens) (Q8WTQ7 whole entry): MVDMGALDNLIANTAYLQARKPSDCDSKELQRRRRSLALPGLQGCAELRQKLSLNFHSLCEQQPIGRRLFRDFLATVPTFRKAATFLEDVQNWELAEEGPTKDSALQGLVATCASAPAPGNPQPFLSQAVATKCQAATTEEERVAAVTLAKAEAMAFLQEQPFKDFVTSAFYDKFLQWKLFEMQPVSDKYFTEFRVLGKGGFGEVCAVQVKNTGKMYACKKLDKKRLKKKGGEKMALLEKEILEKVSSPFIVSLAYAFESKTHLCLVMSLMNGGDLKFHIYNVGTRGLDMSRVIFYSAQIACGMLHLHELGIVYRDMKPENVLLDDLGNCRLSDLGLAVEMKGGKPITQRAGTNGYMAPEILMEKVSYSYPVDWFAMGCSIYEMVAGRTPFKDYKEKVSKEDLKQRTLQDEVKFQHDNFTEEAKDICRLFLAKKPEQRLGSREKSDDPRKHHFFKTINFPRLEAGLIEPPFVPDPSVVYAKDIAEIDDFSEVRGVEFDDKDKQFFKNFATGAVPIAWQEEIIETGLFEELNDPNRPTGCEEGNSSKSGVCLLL
Sequence of Mitogen-activated protein kinase kinase kinase 9 (Homo sapiens) (P80192 whole entry, looked up): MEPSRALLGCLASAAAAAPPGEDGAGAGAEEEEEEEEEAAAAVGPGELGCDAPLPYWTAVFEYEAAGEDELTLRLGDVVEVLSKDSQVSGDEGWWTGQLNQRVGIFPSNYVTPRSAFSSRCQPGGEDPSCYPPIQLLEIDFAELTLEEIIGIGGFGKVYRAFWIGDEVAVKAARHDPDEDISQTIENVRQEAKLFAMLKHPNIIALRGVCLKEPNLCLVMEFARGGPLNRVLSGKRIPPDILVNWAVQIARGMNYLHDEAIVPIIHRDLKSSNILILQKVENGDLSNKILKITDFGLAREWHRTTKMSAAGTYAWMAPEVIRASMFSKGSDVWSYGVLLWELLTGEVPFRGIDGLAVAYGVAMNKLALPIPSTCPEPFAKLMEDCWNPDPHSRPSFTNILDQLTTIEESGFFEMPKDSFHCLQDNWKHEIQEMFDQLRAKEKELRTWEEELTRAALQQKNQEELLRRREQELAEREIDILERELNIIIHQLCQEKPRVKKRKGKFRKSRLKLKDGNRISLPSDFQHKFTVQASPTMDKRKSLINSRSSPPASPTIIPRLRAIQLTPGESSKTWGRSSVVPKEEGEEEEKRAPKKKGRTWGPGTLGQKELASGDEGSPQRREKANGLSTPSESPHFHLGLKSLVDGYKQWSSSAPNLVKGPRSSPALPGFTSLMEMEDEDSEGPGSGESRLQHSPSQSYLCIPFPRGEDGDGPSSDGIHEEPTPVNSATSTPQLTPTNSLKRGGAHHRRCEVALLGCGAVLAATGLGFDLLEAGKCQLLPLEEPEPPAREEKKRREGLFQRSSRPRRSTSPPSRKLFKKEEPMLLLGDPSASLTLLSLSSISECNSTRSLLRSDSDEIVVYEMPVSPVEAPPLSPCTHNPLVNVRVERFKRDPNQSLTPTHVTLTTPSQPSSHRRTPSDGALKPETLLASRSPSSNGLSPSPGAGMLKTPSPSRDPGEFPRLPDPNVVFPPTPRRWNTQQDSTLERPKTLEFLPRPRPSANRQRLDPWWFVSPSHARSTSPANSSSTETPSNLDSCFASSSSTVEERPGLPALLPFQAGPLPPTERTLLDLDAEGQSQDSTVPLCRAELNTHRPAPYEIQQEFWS
Sequence of Uncharacterized serine/threonine-protein kinase SBK3 (Homo sapiens) (P0C264 whole entry): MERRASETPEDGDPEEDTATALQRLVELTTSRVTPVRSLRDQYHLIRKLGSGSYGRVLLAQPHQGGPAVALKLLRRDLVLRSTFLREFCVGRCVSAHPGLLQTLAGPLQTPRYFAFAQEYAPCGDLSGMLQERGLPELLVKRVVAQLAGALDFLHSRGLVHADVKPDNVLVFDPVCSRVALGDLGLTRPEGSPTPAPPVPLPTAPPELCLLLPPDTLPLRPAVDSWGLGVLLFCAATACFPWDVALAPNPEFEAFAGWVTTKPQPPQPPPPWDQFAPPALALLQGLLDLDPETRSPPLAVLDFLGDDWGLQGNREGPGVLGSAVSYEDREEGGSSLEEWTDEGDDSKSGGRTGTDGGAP
Sequence of Platelet-derived growth factor receptor alpha (Homo sapiens) (P16234 whole entry, canonical isoform): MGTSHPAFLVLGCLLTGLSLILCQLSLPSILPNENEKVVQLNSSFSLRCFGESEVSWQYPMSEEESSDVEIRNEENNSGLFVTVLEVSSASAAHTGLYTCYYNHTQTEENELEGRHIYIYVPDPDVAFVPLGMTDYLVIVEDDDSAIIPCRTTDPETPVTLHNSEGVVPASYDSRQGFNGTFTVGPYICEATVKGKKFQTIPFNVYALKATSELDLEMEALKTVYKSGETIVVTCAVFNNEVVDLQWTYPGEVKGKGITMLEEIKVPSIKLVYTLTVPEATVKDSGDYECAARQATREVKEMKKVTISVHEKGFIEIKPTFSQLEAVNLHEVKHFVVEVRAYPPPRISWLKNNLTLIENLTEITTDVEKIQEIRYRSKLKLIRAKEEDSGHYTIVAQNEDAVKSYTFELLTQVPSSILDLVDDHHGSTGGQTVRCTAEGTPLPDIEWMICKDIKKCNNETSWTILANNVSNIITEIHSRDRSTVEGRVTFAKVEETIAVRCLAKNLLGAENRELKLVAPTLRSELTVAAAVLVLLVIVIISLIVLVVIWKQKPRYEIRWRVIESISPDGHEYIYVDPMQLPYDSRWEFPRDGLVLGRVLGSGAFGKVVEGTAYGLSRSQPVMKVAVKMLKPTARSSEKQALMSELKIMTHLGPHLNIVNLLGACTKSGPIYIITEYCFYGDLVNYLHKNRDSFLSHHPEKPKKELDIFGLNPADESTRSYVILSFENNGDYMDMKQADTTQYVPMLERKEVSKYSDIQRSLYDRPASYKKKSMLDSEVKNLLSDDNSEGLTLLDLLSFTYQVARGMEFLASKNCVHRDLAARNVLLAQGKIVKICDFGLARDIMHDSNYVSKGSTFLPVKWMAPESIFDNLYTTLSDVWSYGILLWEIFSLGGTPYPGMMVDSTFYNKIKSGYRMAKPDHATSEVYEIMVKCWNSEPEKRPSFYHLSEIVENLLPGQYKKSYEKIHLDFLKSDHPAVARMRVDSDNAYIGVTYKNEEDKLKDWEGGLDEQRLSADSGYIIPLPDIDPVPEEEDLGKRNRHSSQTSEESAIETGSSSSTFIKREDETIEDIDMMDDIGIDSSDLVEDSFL
Sequence of Muscarinic acetylcholine receptor M5 (Homo sapiens) (P08912 whole entry): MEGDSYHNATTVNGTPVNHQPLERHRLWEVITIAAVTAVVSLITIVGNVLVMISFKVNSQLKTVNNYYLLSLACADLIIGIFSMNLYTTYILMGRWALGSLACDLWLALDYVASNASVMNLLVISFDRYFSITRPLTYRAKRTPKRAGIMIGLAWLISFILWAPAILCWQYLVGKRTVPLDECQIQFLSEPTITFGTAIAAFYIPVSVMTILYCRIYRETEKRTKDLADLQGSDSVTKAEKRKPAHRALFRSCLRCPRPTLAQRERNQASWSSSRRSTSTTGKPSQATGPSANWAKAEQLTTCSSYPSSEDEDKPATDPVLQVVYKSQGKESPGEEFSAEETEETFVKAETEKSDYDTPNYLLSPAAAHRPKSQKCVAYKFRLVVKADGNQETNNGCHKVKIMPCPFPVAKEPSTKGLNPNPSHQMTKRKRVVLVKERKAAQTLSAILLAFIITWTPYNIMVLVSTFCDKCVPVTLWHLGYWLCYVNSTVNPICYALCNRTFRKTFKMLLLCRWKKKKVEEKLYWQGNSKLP

`COc1cccc(CNC(=O)c2nc3scc(COCc4ccc(C(=O)O)cc4)c3c(=O)[nH]2)c1` [T-26c] gave a residual activity [1] of 100%, a residual activity [2] of 59.8% and an inhibition [3] of -7.42%. For the same compound, the residual activity [4] was 100%, the residual activity [5] was 74% and the residual activity [6] was 89.5%. The residual activity [7] was 94.1%, the residual activity [8] was 72.3% and the residual activity [9] was 83.2%. For the same compound, the residual activity [10] was 81.1%, the residual activity [11] was 73.2% and the inhibition [12] was 12.5%. For the same compound, the residual activity [13] was 76%, the residual activity [14] was 87.8% and the residual activity [15] was 100%. For the same compound, the residual activity [16] was 56.3%, the residual activity [17] was 100% and the residual activity [18] was 54.5%. It also gave a residual activity [19] of 91.1%, a residual activity [20] of 99.4% and a residual activity [21] of 83%. The residual activity [22] was 100%, the residual activity [23] was 77.5% and the residual activity [24] was 89.5%. The residual activity [25] was 100%, the residual activity [26] was 71.3% and the residual activity [27] was 99.3%. For the same compound, the residual activity [28] was 100%, the residual activity [29] was 100% and the residual activity [30] was 91.4%. It also gave a residual activity [31] of 100%, a residual activity [32] of 67% and a residual activity [33] of 73.1%. The inhibition (Histamine H1 receptor) was 50.2%, the residual activity [34] was 100% and the inhibition [35] was 29.9%. It also gave a residual activity [36] of 88%, a residual activity [37] of 85.4% and a residual activity [38] of 100%. The residual activity [39] was 92.9%, the residual activity [40] was 89.2% and the residual activity [41] was 88.4%. It also gave a residual activity [42] of 100%, a residual activity [43] of 71.9% and a residual activity [44] of 98.2%.
